Results taken from ChEMBL document CHEMBL1158050, “Minor sesquiterpenes with new carbon skeletons from the brown alga Dictyopteris divaricata” (J Nat Prod, 2006).

Legend:
Type in all cases: functional, cell-based
A549 = experiment: Cytotoxicity against human A549 cells by MTT assay
Bel-7402 = experiment: Cytotoxicity against human Bel-7402 cells by MTT assay
BGC-823 = experiment: Cytotoxicity against human BGC-823 cells by MTT assay
HCT-8 = experiment: Cytotoxicity against human HCT8 cells by MTT assay
MCF7 = experiment: Cytotoxicity against human MCF7 cells by MTT assay

Measured: IC50

CC(=O)[C@@H]1C[C@]2(O)[C@@H]([C@H]1O)[C@H](C(C)C)CC[C@H]2C
> 10 µg/mL: A549 | Bel-7402 | BGC-823 | HCT-8 | MCF7

CC(=O)C1=C2[C@H](C(C)C)CC[C@@H](C)[C@@]2(O)CC1=O
> 10 µg/mL: A549 | Bel-7402 | BGC-823 | HCT-8 | MCF7

CC(=O)C1=C2[C@@H](C)CC[C@H](C(C)C)[C@@]2(O)CC1=O
> 10 µg/mL: A549 | Bel-7402 | BGC-823 | HCT-8 | MCF7

CC(=O)[C@H]1C[C@]2(O)[C@@H]([C@@H]1O)[C@H](C(C)C)CC[C@H]2C
> 10 µg/mL: A549 | Bel-7402 | BGC-823 | HCT-8 | MCF7

CC(=O)C1=C[C@@H]2[C@H](C(C)C)CC[C@@H](C)[C@]2(O)C1
> 10 µg/mL: A549 | Bel-7402 | BGC-823 | HCT-8 | MCF7

CC(C)[C@@H]1CC[C@@H](C)[C@@]2(O)C1=CC(=O)[C@@H]2C(C)O (stereo not given in full)
> 10 µg/mL: A549 | Bel-7402 | BGC-823 | HCT-8 | MCF7
